pIC50: −log10 of the molar value. Read-outs that look alike come from different tables or passages of the source.
Assays:
FGFR3 enzyme = FGFR3 enzyme (Homo sapiens (Human), UniProt P22607); assay: FGFR Enzymatic Assay (FRET peptide phosphorylation), FGFR3; format: biochemical; conditions: for FGFR1/FGFR3 IC50 ratio / FGFR4/FGFR3 IC50 ratio: FGFR3 selectivity; for pIC50: read-out: FGFR3 IC50
Method: (§1) The inhibitor potency of the exemplified compounds was measured in an enzyme assay that measures peptide phosphorylation using FRET measurements to detect product formation. Inhibitors were serially diluted in DMSO and a volume of 0.5 μL was transferred to the wells of a 384-well plate.
(§2) GraphPad prism3 was used to analyze the data.

FGFR1 = FGFR1 (Homo sapiens (Human), UniProt P11362); assay: FGFR Enzymatic Assay (FRET peptide phosphorylation), FGFR1; conditions: for IC50: FGFR1 IC50 (nM); for pIC50: read-out: FGFR1 IC50
Chain of FGFR1 (P11362 22-822): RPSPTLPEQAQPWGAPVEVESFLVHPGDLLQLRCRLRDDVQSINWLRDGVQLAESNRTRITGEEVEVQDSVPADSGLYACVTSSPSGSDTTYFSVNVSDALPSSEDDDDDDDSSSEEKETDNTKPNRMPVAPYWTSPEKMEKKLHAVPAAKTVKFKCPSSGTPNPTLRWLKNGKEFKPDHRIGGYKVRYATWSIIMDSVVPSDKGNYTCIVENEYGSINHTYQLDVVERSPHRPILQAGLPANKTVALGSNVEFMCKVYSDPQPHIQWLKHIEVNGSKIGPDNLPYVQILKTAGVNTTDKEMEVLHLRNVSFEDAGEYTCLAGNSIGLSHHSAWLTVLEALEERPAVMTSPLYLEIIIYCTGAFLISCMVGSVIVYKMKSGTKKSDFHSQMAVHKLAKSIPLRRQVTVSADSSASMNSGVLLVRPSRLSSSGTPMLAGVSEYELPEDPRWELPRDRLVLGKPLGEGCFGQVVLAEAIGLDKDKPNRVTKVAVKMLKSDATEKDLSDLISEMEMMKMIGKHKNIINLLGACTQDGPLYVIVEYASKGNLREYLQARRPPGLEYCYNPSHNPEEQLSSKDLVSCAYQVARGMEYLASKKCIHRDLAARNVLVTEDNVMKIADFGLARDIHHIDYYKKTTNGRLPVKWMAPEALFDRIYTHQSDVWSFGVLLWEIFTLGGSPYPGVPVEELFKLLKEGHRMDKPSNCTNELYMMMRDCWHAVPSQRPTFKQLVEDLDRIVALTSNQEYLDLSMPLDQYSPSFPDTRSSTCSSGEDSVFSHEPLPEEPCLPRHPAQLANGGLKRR

FGFR4 = FGFR4 (Homo sapiens (Human), UniProt P22455); assay: FGFR Enzymatic Assay (FRET peptide phosphorylation), FGFR4; format: biochemical; conditions: for FGFR1/FGFR4 IC50 ratio / FGFR2/FGFR4 IC50 ratio / FGFR3/FGFR4 IC50 ratio: FGFR4 selectivity
Chain of FGFR4 (P22455 22-802): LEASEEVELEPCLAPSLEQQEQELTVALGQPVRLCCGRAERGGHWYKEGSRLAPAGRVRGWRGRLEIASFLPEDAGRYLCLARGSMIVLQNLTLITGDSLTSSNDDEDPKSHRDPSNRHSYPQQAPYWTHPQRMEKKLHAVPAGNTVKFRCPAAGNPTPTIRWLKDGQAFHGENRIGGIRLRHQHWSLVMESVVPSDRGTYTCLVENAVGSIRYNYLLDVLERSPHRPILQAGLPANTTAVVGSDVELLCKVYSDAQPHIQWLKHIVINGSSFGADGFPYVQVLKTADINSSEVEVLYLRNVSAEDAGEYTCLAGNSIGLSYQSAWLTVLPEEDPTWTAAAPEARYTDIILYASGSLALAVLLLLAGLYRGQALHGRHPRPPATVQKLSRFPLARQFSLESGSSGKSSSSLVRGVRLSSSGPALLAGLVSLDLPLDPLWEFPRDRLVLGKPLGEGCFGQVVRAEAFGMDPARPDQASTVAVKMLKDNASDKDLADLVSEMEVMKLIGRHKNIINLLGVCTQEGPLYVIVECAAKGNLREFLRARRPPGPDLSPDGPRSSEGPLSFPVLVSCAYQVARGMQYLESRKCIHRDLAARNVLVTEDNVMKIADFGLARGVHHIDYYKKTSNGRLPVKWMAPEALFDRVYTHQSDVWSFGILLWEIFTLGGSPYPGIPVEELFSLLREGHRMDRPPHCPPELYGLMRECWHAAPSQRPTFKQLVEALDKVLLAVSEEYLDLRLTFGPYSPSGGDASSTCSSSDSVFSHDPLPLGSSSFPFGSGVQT
Method: as §1
(§3) The enzymes were purchased from Millipore or Invitrogen.
as §2

FGFR2 = FGFR2 (Homo sapiens (Human), UniProt P21802); assay: FGFR Enzymatic Assay (FRET peptide phosphorylation), FGFR2; format: biochemical
Chain of FGFR2 (P21802 22-821): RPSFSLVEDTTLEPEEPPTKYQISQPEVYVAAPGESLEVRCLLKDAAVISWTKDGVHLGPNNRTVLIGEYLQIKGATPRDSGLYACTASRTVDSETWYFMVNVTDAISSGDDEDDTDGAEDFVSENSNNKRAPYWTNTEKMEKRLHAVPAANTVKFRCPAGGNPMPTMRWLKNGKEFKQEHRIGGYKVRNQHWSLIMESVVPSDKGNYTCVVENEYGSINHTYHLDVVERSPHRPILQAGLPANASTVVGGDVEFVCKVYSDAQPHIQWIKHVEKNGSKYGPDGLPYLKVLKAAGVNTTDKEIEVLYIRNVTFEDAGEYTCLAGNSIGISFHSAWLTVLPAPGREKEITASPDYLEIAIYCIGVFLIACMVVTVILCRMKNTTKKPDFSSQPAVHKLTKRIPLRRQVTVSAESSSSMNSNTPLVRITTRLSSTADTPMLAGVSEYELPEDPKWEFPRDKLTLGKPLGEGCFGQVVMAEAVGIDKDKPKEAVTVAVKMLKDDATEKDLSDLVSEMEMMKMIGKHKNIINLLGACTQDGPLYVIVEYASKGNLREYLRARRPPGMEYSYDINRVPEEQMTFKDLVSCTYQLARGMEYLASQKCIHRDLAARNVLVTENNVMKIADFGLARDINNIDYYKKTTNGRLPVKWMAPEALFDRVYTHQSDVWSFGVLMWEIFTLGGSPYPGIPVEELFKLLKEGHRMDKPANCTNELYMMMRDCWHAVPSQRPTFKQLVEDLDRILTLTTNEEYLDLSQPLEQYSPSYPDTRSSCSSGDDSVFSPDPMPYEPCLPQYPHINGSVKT
Method: as §1, §3, §2

[1] = pre-incubated for 5 to 10 minutes

Chain of FGFR3 enzyme (P22607 23-806): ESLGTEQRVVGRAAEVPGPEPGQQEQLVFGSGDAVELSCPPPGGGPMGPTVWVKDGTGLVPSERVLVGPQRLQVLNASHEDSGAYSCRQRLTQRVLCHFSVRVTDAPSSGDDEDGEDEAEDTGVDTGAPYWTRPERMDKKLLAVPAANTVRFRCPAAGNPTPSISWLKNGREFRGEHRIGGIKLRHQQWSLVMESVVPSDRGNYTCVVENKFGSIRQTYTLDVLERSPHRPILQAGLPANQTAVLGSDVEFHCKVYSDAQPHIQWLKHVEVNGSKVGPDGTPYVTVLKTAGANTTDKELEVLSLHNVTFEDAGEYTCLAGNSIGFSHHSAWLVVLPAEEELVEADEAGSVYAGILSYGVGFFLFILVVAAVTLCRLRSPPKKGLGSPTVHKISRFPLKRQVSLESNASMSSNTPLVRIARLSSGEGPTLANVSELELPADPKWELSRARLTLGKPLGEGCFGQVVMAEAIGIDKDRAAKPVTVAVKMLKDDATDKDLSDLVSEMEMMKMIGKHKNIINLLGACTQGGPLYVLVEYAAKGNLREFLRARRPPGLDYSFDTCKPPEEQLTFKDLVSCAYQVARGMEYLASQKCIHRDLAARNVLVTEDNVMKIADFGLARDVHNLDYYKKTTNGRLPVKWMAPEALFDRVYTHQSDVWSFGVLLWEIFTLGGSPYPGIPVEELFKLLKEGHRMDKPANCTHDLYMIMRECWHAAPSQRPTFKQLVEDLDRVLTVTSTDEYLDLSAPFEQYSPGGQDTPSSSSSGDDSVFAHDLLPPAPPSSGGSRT

Compound	FGFR1/FGFR3 IC50 ratio (FGFR3 enzyme; pre-incubated for 4 hours)	FGFR4/FGFR3 IC50 ratio (FGFR3 enzyme; pre-incubated for 4 hours)	pIC50 (FGFR3 enzyme; pre-incubated for 4 hours)	IC50 (FGFR1; pre-incubated for 4 hours) [nM]	pIC50 (FGFR4; pre-incubated for 4 hours)	pIC50 (FGFR2; pre-incubated for 4 hours)	pIC50 (FGFR3 enzyme; [1])	pIC50 (FGFR1; [1])	pIC50 (FGFR1; pre-incubated for 4 hours)	FGFR1/FGFR4 IC50 ratio (FGFR4; [1])	FGFR2/FGFR4 IC50 ratio (FGFR4; [1])	FGFR3/FGFR4 IC50 ratio (FGFR4; [1])	FGFR1/FGFR4 IC50 ratio (FGFR4; pre-incubated for 4 hours)	FGFR2/FGFR4 IC50 ratio (FGFR4; pre-incubated for 4 hours)	FGFR3/FGFR4 IC50 ratio (FGFR4; pre-incubated for 4 hours)	pIC50 (FGFR4; [1])	pIC50 (FGFR2; [1])
COc1cc(OC)c(F)c(N2Cc3cnc(-c4cncc(-n5ccnc5)c4)cc3C3(CC3)C2=O)c1F [Example 12, 6′-(5-(1H-imidazol-1-yl)pyridin-3-yl)-2′-(2,6-difluoro-3,5-dimethoxyphenyl)-1′H-spiro[cyclopropane-1,4′-[2,7]naphthyridin]-3′(2′H)-one]	>3	–	6.70 to 7.52	–	> 8.00	6.70 to 7.52	6.70 to 7.52	< 6.70	< 6.70	>50	>25	>20	>50	>25	>10	> 8.00	6.70 to 7.52
CCN1C(=O)N(c2c(F)c(OC)cc(OC)c2F)Cc2cnc(-c3ccc(C4(C#N)CCC4)cc3)cc21 [Example 181, 1-(4-(3-(2,6-difluoro-3,5-dimethoxyphenyl)-1-ethyl-2-oxo-1,2,3,4-tetrahydropyrido[4,3-d]pyrimidin-7-yl)phenyl)cyclobutanecarbonitrile]	>5	>10	> 8.00	30 to 200	6.70 to 7.52	> 8.00	–	–	–	–	–	–	–	–	–	–	–
COc1cc(OC)c(F)c(N2Cc3cnc(-c4cnn(C5(CC#N)CN(C(C)=O)C5)c4)cc3C3(CC3)C2=O)c1F [Example 56, 2-(1-acetyl-3-(4-(2′-(2,6-difluoro-3,5-dimethoxyphenyl)-3′-oxo-2′,3′-dihydro-1′H-spiro[cyclopropane-1,4′-[2,7]naphthyridine]-6′-yl)-1H-pyrazol-1-yl)azetidin-3-yl)acetonitrile]	>5	>1	6.70 to 7.52	–	6.70 to 7.52	6.70 to 7.52	–	–	< 6.70	–	–	–	–	–	–	–	–
CCN1C(=O)N(c2c(F)c(OC)cc(OC)c2F)Cc2cnc(-c3ccc(CN4CC[C@H](C#N)C4)cc3)cc21 [Example 25, (S)-1-(4-(3-(2,6-difluoro-3,5-dimethoxyphenyl)-1-ethyl-2-oxo-1,2,3,4-tetrahydropyrido[4,3-d]pyrimidin-7-yl)benzyl)pyrrolidine-3-carbonitrile]	>5	>5	> 8.00	10 to 30	7.52 to 8.00	> 8.00	–	–	–	–	–	–	–	–	–	–	–

Now from value to compound:

FGFR1/FGFR3 IC50 ratio (FGFR3 enzyme; pre-incubated for 4 hours)	FGFR4/FGFR3 IC50 ratio (FGFR3 enzyme; pre-incubated for 4 hours)	pIC50 (FGFR3 enzyme; pre-incubated for 4 hours)	IC50 (FGFR1; pre-incubated for 4 hours) [nM]	pIC50 (FGFR4; pre-incubated for 4 hours)	pIC50 (FGFR2; pre-incubated for 4 hours)	pIC50 (FGFR3 enzyme; [1])	pIC50 (FGFR1; [1])	pIC50 (FGFR1; pre-incubated for 4 hours)	FGFR1/FGFR4 IC50 ratio (FGFR4; [1])	FGFR2/FGFR4 IC50 ratio (FGFR4; [1])	FGFR3/FGFR4 IC50 ratio (FGFR4; [1])	FGFR1/FGFR4 IC50 ratio (FGFR4; pre-incubated for 4 hours)	FGFR2/FGFR4 IC50 ratio (FGFR4; pre-incubated for 4 hours)	FGFR3/FGFR4 IC50 ratio (FGFR4; pre-incubated for 4 hours)	pIC50 (FGFR4; [1])	pIC50 (FGFR2; [1])	Compound
>5	>3	7.52 to 8.00	30 to 200	6.70 to 7.52	6.70 to 7.52	–	–	–	–	–	–	–	–	–	–	–	COc1cc(OC)c(F)c(N2Cc3cnc(-c4cn(C)nc4C)cc3N(c3ccc4nc(C)oc4c3)C2=O)c1F [Example 75, 3-(2,6-difluoro-3,5-dimethoxyphenyl)-7-(1,3-dimethyl-1H-pyrazol-4-yl)-1-(2-methylbenzo[d]oxazol-6-yl)-3,4-dihydropyrido[4,3-d]pyrimidin-2(1H)-one]
–	–	–	–	–	–	> 8.00	> 8.00	–	–	–	–	–	–	–	7.52 to 8.00	> 8.00	COc1cc(OC)c(F)c(N2Cc3cnc(-c4cn(C)nc4C)cc3N(Cc3cnn(CC(F)F)c3)C2=O)c1F [Example 128, 3-(2,6-difluoro-3,5-dimethoxyphenyl)-1-((1-(2,2-difluoroethyl)-1H-pyrazol-4-yl)methyl)-7-(1,3-dimethyl-1H-pyrazol-4-yl)-3,4-dihydropyrido[4,3-d]pyrimidin-2(1H)-one]
>5	>10	> 8.00	30 to 200	6.70 to 7.52	> 8.00	–	–	–	–	–	–	–	–	–	–	–	COc1cc(OC)c(F)c(N2Cc3cnc(-c4cn(C)nc4C)cc3N(c3cncc(C)n3)C2=O)c1F [Example 87, 3-(2,6-difluoro-3,5-dimethoxyphenyl)-7-(1,3-dimethyl-1H-pyrazol-4-yl)-1-(6-methylpyrazin-2-yl)-3,4-dihydropyrido[4,3-d]pyrimidin-2(1H)-one]
